“Also recorded” adds a separate entry of the source. Read-outs that look alike come from different tables or passages of the source.
Experiments:
[1] = target: T1, COX-1 (Ovis aries, UniProt P05979); assay: COX inhibitor screening assay kit, COX-1; format: biochemical; settings: mean ± SD
T1 construct: purchased Cayman Chemical 560131
T1 sequence (P05979 25-600): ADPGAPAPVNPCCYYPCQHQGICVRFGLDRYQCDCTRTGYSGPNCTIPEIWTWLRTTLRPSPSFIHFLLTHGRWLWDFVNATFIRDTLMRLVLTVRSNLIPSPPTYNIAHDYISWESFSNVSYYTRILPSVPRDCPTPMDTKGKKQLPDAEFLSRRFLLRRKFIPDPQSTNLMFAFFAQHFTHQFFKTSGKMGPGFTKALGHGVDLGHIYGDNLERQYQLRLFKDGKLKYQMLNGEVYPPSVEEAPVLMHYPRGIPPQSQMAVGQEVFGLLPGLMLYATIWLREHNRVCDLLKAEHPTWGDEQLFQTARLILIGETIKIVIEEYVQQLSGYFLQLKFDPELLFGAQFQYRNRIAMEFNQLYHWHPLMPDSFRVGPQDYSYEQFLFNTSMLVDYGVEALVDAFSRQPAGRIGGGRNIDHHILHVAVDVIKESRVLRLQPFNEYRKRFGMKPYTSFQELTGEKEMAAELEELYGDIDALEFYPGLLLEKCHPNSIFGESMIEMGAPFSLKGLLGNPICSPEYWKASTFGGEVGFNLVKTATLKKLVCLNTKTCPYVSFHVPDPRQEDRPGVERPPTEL
Experimental: The assay was performed in quadruplet using a COX Inhibitor Screening Assay Kit from Cayman Chemical (Cat. No. 560131) according to the manufacturer’s instructions.

[2] = system: Sup-T1 cells; assay: Cellular growth inhibition assay (MTS); format: cell-based; settings: for IC50: Homo sapiens
Experimental: The CellTiter 96® AQueous One Solution Cell Proliferation Assay (MTS, Promega, Madison, WI, USA) was used to measure proliferation inhibition of cultured cells. Briefly, Sup-T1 cells were cultured in RPMI 1640 supplemented with 10% FBS and 1% penicillin/streptomycin at 37 °C and 5% CO2. […] The MTS reagent was added and incubated for 4 h. […] Sup-T1 cells were used in this study because curcuminoids are thought in part to work via an HDAC inhibitor mechanism and as some HDACs are approved for some T-cell lymphomas, we used Sup-T1 cells because they are a T-cell lymphoma cell line that is established. To the best of our knowledge no other study has measured the effects of THC on Sup-T1 cells.
(§1) Data for the PCAF and HDAC1 inhibition and viability assays were used to derive percent changes based on no treatment controls. Each of three data sets were then fit to a 4-parameter logistic regression using SigmaPlot 12.2 to derive IC50 values, which were then used to determine the mean and SD.

[3] = target: T2, PCAF (Homo sapiens, UniProt Q92831); assay: PCAF inhibitor screening assay kit (fluorescence); format: biochemical; settings: for IC50: mean ± SD
T2 construct: purchased Cayman 10006515
Experimental: Curcuminoids were tested for direct HDAC1 and PCAF inhibitory activity using the fluorescent-based HDAC1 or PCAF inhibitor screening assay kit ((HDAC1) 10011564, (PCAF) 10006515, Cayman, Ann Arbor, MI, USA) according to manufacturer’s instructions.
as §1

[4] = system: TNF-α release in Sup-T1 cells; assay: Cellular inflammatory cytokine release assay (TNF-α ELISA); format: cell-based, human; settings: Sup-T1 cells, 5, 10, 50 and 100 μM, versus no-treatment control
Experimental: Cell culture supernatant was collected and used to determine released TNF-α using the Human TNF-alpha DuoSet ELISA kit (DY210, R & D systems, Minneapolis, MN, USA) following the standard manufacturer’s protocol, optimized using recombinant TNF-α. […] The data were analyzed using SigmaPlot 12.2 (Systat Software Inc., San Jose, CA, USA).

[5] = target: T3, 15-lipoxygenase derived from soybean (Glycine max, UniProt P08170); assay: Lipoxygenase inhibitor screening assay kit; settings: for lipoxygenase inhibition (in words): 1, 10 and 250 μg/mL tested, versus control; for lowest concentration inhibiting lipoxygenase: soybean 15-lipoxygenase, linoleic acid substrate
T3 sequence (P08170 1-839): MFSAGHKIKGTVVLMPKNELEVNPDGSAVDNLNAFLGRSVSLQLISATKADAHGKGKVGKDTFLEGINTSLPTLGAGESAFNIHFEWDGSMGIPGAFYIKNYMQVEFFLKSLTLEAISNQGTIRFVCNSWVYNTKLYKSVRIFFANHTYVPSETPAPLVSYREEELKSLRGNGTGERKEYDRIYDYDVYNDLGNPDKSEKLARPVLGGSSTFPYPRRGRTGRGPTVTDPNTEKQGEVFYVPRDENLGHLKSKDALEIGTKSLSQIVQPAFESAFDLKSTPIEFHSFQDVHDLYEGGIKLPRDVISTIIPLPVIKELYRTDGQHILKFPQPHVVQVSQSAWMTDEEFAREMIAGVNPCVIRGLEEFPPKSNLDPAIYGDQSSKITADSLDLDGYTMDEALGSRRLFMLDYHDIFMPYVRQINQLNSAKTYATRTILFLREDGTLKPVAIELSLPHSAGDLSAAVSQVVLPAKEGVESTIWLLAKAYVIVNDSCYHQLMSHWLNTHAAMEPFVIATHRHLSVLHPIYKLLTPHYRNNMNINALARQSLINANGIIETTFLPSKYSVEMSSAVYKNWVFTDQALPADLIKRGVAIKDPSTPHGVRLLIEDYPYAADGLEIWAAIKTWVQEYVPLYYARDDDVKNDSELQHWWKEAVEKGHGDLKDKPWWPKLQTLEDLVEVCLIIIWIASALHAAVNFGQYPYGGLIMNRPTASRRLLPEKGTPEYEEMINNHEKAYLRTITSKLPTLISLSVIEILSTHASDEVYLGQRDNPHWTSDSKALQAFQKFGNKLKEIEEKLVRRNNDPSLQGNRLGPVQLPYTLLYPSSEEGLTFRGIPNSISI

[6] = target: T4, COX-2 (Homo sapiens, UniProt P35354); assay: COX inhibitor screening assay kit, COX-2; format: biochemical; settings: for COX-2/COX-1 IC50 ratio: COX-2 IC50 divided by COX-1 IC50
T4 construct: purchased Cayman Chemical 560131
T4 sequence (P35354 18-604): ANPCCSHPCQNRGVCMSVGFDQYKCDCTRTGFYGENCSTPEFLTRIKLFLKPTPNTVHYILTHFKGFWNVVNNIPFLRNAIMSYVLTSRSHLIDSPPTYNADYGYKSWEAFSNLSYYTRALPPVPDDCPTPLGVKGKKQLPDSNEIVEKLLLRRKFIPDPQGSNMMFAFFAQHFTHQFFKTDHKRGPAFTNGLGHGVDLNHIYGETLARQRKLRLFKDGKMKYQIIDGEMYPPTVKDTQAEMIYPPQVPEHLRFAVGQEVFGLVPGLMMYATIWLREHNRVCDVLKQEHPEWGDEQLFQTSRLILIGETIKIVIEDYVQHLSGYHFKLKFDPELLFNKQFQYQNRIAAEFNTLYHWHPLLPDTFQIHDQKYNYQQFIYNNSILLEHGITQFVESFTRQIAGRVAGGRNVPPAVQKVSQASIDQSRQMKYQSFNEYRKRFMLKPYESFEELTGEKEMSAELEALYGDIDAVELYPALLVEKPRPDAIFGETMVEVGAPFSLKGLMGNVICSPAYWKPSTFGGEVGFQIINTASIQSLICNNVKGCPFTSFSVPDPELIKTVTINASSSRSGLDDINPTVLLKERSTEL

[7] = target: T5, HDAC1 (Homo sapiens, UniProt Q13547); assay: HDAC1 inhibitor screening assay kit (fluorescence); format: biochemical
T5 construct: purchased Cayman 10011564

[8] = target: T6, CYP2C9 (Homo sapiens, UniProt P11712); assay: Vivid CYP450 screening kit, CYP2C9; format: in vitro ADME; settings: 0.01-100 μM, relative to sulfaphenazole
T6 construct: purchased Life Technologies P2860

[9] = target: CYP3A4 (Homo sapiens, UniProt P08684); assay: Vivid CYP450 screening kit, CYP3A4; settings: 0.01-100 μM, relative to ketoconazole; to a lesser extent than CYP2C9
Experimental: (§2) CYP2C9, CYP3A4, CYP1A2 and CYP2D6 assays were performed to assess metabolism and inhibition of human P450 isozymes involved using Vivid® CYP450 screening kits and CYP450 BACULOSOMES® Plus Reagents. CYP450 BACULOSOMES® Plus Reagents express only one CYP450 enzyme, preventing metabolism by other CYP450s. For CYP2C9, the substrate was BOMF and the positive control inhibitor sulfaphenazole; for CYP3A4, DBOMF was the substrate and ketoconazole the positive control inhibitor; for CYP1A2, the substrate was EOMCC and the positive control inhibitor naphthoflavone; for CYP2D6, the substrate was EOMCC and the positive control inhibitor quinidine. The assays were performed using the excitation and emission wavelengths recommended by the manufacturer. […] The plate was incubated for 10 min at room temperature (25 ± 1 °C) on a plate shaker. Then, 10 μL of Vivid® Substrate was added to each well to start the reaction. […] The assay was done in triplicate. The reading was performed at 1 min intervals for 60 min. Inhibition was calculated as (1 − (X − B/A − B)) × 100%, where X was the average of compound fluorescence, A was the average of solvent control and B was the average of inhibition in the presence of positive inhibitor control. The percent inhibition was calculated relative to a fixed concentration of the positive control. […]

[10] = target: T7, CYP1A2 (Homo sapiens, UniProt P05177); assay: Vivid CYP450 screening kit, CYP1A2; settings: 0.01-100 μM
T7 sequence (P05177 1-516): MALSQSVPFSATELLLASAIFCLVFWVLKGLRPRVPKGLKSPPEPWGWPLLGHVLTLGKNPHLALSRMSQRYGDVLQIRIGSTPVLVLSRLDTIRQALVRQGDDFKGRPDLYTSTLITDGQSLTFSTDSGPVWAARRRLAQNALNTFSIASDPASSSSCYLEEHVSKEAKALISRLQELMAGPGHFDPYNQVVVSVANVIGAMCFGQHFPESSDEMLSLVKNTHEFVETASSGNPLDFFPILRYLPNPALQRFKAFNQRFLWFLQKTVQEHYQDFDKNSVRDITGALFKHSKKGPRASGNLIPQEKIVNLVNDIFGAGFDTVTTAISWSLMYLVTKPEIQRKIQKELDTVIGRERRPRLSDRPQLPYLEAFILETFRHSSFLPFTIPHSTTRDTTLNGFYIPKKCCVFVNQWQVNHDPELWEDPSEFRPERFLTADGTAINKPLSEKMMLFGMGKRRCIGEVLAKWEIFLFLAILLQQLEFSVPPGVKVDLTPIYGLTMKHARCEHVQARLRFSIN
Experimental: as §2

[11] = target: CYP2D6 (Homo sapiens, UniProt P10635); assay: Vivid CYP450 screening kit, CYP2D6; settings: 0.01-100 μM
Experimental: as §2

[12] = Total antioxidant capacity assay kit (ABTS, Trolox equivalents); settings: with respect to Trolox
[13] = Pharmacokinetic study of THC after oral gavage, serum and urine by UHPLC-MS/MS; settings: rat, 500 mg/kg oral
[14] = SUP-T1, read-out: Viability IC50

T2 sequence (Q92831 492-658 limits assumed): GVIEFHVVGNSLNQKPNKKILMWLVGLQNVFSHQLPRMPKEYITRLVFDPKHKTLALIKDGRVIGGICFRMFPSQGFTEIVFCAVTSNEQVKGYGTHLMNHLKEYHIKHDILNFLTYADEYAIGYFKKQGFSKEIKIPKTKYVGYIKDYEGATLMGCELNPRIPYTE
T6 sequence (P11712 whole entry): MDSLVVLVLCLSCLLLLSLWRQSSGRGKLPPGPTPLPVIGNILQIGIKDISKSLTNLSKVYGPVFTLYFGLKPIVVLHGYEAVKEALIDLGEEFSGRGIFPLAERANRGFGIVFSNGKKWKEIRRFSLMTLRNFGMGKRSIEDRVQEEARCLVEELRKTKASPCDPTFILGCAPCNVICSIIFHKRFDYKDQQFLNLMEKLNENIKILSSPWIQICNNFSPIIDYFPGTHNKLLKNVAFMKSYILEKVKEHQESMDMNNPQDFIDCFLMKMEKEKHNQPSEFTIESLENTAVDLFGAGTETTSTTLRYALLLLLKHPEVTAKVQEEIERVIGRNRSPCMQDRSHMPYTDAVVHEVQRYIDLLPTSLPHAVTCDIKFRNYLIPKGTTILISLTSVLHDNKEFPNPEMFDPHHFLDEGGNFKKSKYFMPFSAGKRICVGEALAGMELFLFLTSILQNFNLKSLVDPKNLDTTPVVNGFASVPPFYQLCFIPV
T5 sequence (Q13547 whole entry): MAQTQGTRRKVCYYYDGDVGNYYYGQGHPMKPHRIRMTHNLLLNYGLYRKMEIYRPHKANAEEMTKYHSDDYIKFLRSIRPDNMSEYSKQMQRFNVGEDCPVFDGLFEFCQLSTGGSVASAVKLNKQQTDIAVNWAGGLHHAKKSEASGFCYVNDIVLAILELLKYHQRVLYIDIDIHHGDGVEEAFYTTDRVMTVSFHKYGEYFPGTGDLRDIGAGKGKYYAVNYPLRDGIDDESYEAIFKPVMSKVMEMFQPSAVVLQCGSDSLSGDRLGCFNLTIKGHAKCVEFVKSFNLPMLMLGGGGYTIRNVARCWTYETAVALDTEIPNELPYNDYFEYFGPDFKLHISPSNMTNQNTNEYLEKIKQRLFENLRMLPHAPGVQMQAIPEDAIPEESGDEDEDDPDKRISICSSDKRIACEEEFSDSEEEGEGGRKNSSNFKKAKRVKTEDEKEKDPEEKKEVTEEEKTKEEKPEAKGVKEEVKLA
Chain of CYP3A4 (P08684 whole entry): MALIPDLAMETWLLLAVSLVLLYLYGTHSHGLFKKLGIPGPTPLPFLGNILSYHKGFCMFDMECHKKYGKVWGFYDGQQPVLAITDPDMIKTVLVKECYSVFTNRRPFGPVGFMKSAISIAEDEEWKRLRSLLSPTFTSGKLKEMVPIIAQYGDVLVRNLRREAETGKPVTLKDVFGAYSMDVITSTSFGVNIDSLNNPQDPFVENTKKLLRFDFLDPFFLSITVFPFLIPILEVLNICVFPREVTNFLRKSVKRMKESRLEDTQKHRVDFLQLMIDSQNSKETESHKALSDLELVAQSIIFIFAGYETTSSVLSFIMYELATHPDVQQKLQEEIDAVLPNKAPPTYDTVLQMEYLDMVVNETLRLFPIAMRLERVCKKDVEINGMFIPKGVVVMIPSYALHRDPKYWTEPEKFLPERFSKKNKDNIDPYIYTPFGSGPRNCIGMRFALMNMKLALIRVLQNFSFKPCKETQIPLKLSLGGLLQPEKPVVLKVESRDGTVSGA
Chain of CYP2D6 (P10635 whole entry): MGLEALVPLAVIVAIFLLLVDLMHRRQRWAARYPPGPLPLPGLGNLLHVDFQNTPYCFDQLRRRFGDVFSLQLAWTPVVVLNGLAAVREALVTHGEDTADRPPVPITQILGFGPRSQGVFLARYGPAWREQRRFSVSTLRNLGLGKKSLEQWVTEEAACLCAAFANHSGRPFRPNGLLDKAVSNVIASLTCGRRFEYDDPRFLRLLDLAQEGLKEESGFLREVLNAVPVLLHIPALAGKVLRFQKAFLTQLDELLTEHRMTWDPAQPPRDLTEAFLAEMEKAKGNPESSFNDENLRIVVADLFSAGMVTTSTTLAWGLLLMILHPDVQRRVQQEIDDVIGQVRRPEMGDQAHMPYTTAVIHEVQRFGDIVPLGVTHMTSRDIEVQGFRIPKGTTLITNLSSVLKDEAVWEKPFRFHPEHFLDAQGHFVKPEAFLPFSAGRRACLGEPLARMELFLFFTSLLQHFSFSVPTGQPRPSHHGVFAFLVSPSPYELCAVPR

Compound | IC50 [1] | IC50 [2, 14] | IC50 [3] | change in TNF-α concentration (in words) [4] | lipoxygenase inhibition (in words) [5] | lowest concentration inhibiting lipoxygenase [5] | COX-2/COX-1 IC50 ratio [6] | CYP2C9 inhibition (in words) [8] | CYP3A4 inhibition (in words) [9] | CYP1A2 inhibition (in words) [10] | CYP2D6 inhibition (in words) [11] | concentration of greatest antioxidant effect [12] | also measured
COc1cc(/C=C/C(=O)CC(=O)/C=C/c2ccc(O)c(OC)c2)ccc1O [Curcumin, curcumin] | 3390 ± 8980 µM | 19 ± 11 µM | 33.1 ± 2.8 µM | slight decrease | inhibited soybean 1,5-lipoxygenase at all doses tested | ≤ 1 µM | – | – | – | – | – | – | –
COc1cc(CCC(=O)CC(=O)CCc2ccc(O)c(OC)c2)ccc1O [THC, tetrahydrocurcumin] | 918 ± 1300 µM | 82 ± 116 µM | – | no dose-response change | inhibited soybean 1,5-lipoxygenase at all doses tested; also recorded: potent lipoxygenase inhibition | ≤ 1 µM | around 1 | dose-dependent inhibition | dose-dependent inhibition | did not show a consistent dose-response inhibition | did not show a consistent dose-response inhibition | 100 µM | IC50 [6]: 1350 ± 3640 µM; maximal growth inhibition ([2]; Sup-T1 cells, up to 100 μM): ≤ 40%; HDAC1 inhibition (in words) ([7]; 0.1-250 μg/mL): no inhibitory activity; PCAF inhibition (in words) ([3]; 0.1-250 μg/mL): no inhibitory activity; time of peak serum THC concentration [13]: 1 h; serum THC maxima of the two redistribution phases ([13]; at 6 and 24 h): about 1 μg/mL; maximum rate of urinary excretion ([13]; at 2 h): under 3 μg/h; total amount of THC excreted unchanged in urine ([13]; at 24 h): up to 8 μg; serum THC concentration found up to 20 h later ([13]; up to 20 h after the peak): greater than 1 μg/mL
COc1cc(/C=C/C(=O)COC(=O)/C=C/c2ccc(O)c(OC)c2)ccc1O [Calebin-A, calebin-A] | 1070 ± 490 µM | – | 200 ± 31 µM | no dose-response change | did not show any activity | – | around 1 | dose-dependent inhibition | dose-dependent inhibition | did not show a consistent dose-response inhibition | did not show a consistent dose-response inhibition | 100 µM | IC50 ([6]; mean ± SD, read-out: COX-2 IC50): 784 ± 2200 µM; IC50 ([2]; Sup-T1 growth inhibition, MTS, mean ± SD, read-out: Viability IC50): 26.2 ± 17 µM; IC50 ([7]; mean ± SD): 61.3 ± 11 µM; fold less potent than curcumin, PCAF inhibition ([3]; ratio of PCAF IC50): 6 fold; lipoxygenase inhibition (in words) ([5]; listed as calebin-A): no such inhibitory activity
